From patent US6294573A, “Reverse hydroxamate inhibitors of matrix metalloproteinases” (Abbott Laboratories, priority 2000, dated 2001)

Target: T1, Recombinant truncated stromelysin (human sequence) (Homo sapiens, UniProt P08254)
T1 construct: made in house; host or cells: E. coli
Experiment: Inhibition of stromelysin (cleavage of thiopeptide ester substrate, DTNB readout at 405 nm)
Assay type: biochemical
Conditions: 30 minute assay, ambient temperature, pH 6.5, thiopeptide ester substrate
Description: The efficacy of the compounds of this invention as matrix metalloproteinase inhibitors was determined by measuring the inhibition of stromelysin. The inhibition of stromelysin by the compounds of this invention was determined as follows: Recombinant truncated stromelysin (human sequence) produced in E. coli was prepared by expression and purification of the protein as described by Ye et al. (Biochemistry, 1992, 31, 11231-11235, which is incorporated herein by reference). The enzyme was assayed by its cleavage of the thiopeptide ester substrate Ac-Pro-Leu-Gly-[2-mercapto-4-methylpentanoyl]-Leu-Gly-OEt as described by Weingarten and Feder (Anal. Biochem., 1985, 147, 437-440 (1985), which is incorporated herein by reference) as a substrate of vertebrate collagenase. The reported conditions were modified to allow assays to be carried out in a microtiter plate. Upon hydrolysis of the thioester bond, the released thiol group reacted rapidly with 5,5'-dithio-bis(2-nitrobenzoic acid) (DTNB) to produce a yellow color which was measured by a microtiter plate reader set at 405 nm. The rates of cleavage of the substrate by stromelysin in the presence or absence of inhibitors were measured in a 30 minute assay at ambient temperature. […] The potency of the compounds [IC50 ] was calculated from the inhibition/inhibitor concentration data.

T1 sequence (P08254 100-273 limits assumed): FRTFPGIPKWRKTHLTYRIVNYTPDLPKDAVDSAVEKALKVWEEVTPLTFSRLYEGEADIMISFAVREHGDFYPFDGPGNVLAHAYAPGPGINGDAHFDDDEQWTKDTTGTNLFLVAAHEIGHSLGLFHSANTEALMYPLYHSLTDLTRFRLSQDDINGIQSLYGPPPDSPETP

IC50: 17 nM
SMILES: CN1C(=O)N(CCC(COc2ccc(-c3ccc(C#N)cc3)cc2)N(O)C=O)C(=O)C1(C)C (racemic) [Example 5, (±)-N-[1-[[(4'-cyano-[1,1'-biphenyl]-4-yl)oxy]methyl]-3-(3,4,4-trimethyl-2,5-dioxo-1-imidazolidinyl)propyl]-N-hydroxyformamide]
